Four compounds from patent US8952149B2, “Tricyclic tetrahydroquinoline antibacterial agents” (Zoetis LLC, priority 2012, dated 2015) can be followed below.

Data set [1] deals with S. pyogenes 02C0203. In words: AUC/MIC ratios required for efficacy (PK-PD). It counts as in vivo. The conditions noted are these: free AUC required for efficacy against S. pyogenes 02C0203 in mice. The protocol: (§1) In this example, the plasma concentrations of selected compounds were determined in mice that were infected with S. pyogenes 02C0203 at an oral dose of 100 mg/kg^4. Plasma samples were assayed for selected compounds using LC/MS/MS with multiple reaction monitoring. Free fractions were measured using equilibrium dialysis^5.
(§2) Separate groups of immunosuppressed mice were infected as above and orally dosed 2 hours post-infection with 100 mg/kg of the selected compounds. Thigh tissue samples (10% in PBS) and plasma were collected at 0.5, 1, 2, 4, 8 and 24 hours post-dose (n=3) for quantitation of drug levels. Bacterial burden was quantitated in the thigh tissue samples from treated mice and from infected, untreated mice at each timepoint.

Data set [2] relates to S. pyogenes 02C0203. Briefly: Neutropenic soft tissue (thigh abscess) infection model. It counts as in vivo, CF-1 female mice. The conditions noted are these: thigh tissue 24 hours post-dose. The procedure:
In this example, the in vivo antibacterial efficacy of selected compounds was determined in a neutropenic soft tissue infection model in CF-1 female mice challenged with Streptococcus pyogenes 02C0203. With the exception of modifications discussed here, the murine soft tissue infection model was previously described by Craig et al. (6, 7, 8).
CF-1 female mice were immunosuppressed with oral doses of cyclophosphamide in sterile water on Day-4 (150 mg/kg) and Day-1 (100 mg/kg). Mice were infected intramuscularly (thigh muscle) with 7×10^5 cfu of S. pyogenes 02C0203 in 0.1 ml brain heart infusion broth on Day 0. Two hours post-infection, mice received a single oral dose of selected compounds. The compounds were administered orally from a spray dried dispersion (SDD) in 0.5% (wt/v) methylcellulose (MC), 0.5% (wt/v) hydroxypropyl methylcellulose acetate succinate medium, fine powder (HPMCAS-MF) in 20 mM Tris buffer (pH 7.4). Thigh tissue was collected 24 hours post-dose. Serial ten-fold dilutions of tissue homogenates prepared in sterile phosphate buffered saline were plated on 5% sheep blood agar plates for enumeration of bacterial burden.
as §2

Data set [3] has as its system S. pyogenes 02C0203. In words: In vitro MIC testing by microbroth dilution. The following applies: for antibacterial activity (in words): S. pyogenes 02C0203; for MIC: Streptococcus pyogenes, 02C0203, microbroth dilution, 35° C., 16 to 24 hours. The data set is classed as cell-based, Streptococcus pyogenes. The procedure:
Except for clarifying or modifying statements, MIC testing followed procedures recommended by the NCCLS^1-2 or followed the descriptions cited below.
At least the following organisms are included in the screen: S. pyogenes 02C0203. Incubations were at 35° C. Stock bacterial cultures were maintained on Tryptic Soy Agar containing 5% Sheep Blood (BD, Becton Dickinson Microbiology Systems, Cockeysville, Md.), anaerobes were maintained on Anaerobic Blood Agar plates—CDC Formulation (BD), and fastidious organisms were maintained on Chocolate Agar II Plates (BD). Specific conditions of handling are listed below.
Frozen stock cultures were used as the initial source of organisms for performing microbroth dilution MIC testing. Stock cultures were passed on their standard growth medium for at least 1 growth cycle (18 to 24 hours) prior to their use.
Most bacteria, unless otherwise noted, were prepared directly from agar plates in 10 mL aliquots of the appropriate broth medium. Bacterial cultures were adjusted to the opacity of a 0.5 McFarland Standard (optical density value of 0.28-0.33 on a Perkin-Elmer Lambda EZ150 Spectrophotometer Wellesley, Mass., set at a wavelength of 600 nm). The adjusted cultures were diluted 400 fold (0.25 mL inoculum+100 mL broth) in growth media to produce a starting suspension of approximately 5×10^5 colony forming units (CFU)/mL. Unless otherwise noted, bacterial strains were tested in cation adjusted Mueller Hinton Broth (CAMHB).
Compounds were solubilized in DMSO. Drug stock solutions were prepared on the day of testing. Drugs were weight corrected for assay content where necessary.
Microbroth dilution stock plates were prepared in two dilution series, 64 to 0.06 μg drug/mL and 0.25 to 0.00025 μg drug/mL. For the high concentration series, 200 μL of stock solution ([…]) was added to duplicate rows of a 96-well microtiter plate. This was used as the first well in the dilution series. Serial two-fold decremental dilutions were made using a BioMek FX robot (Beckman Coulter Inc., Fullerton, Calif.) with 10 of the remaining 11 wells, each of which contained 100 μL of the appropriate solvent/diluent. Row 12 contained solvent/diluent only and served as the control. For tube one of the low concentration series, 200 µL of an 8 μg/mL stock was added to duplicate rows of a 96-well plate. Serial two-fold dilutions were made as described above.
Daughter plates were spotted (3.2 μL/well) from the stock plates listed above using the BioMek FX robot and were either used immediately or frozen at −70° C. until use.
Aerobic organisms were inoculated (100 μL volumes) into the thawed plates using the BioMek FX robot. The inoculated plates were placed in stacks of no more than 5 and covered with an empty plate. These plates were incubated 16 to 24 hours in ambient atmosphere according to CLSI guidelines^2.
After inoculation and incubation, the degree of bacterial growth was estimated visually with the aid of a Test Reading Mirror (Dynex Technologies 220 16) in a darkened room with a single light shining directly through the top of the microbroth tray. The MIC was the lowest concentration of drug that prevented macroscopically visible growth under the conditions of the test. Testing was performed in duplicate. When the MIC values in duplicate tests varied by 1 well (2-fold), the […] values were reported. If the MICs varied by 2 dilutions, the middle value was reported. […]

A short description of data set [4]: Plasma concentrations in infected mice after an oral dose (LC/MS/MS). It counts as in vivo. The conditions noted are these: for concentration at 0.5 h / concentration at 1 h / concentration at 2 h / concentration at 4 h / concentration at 8 h / concentration at 24 h: CF-1, mouse, plasma, infected mice (n = 3), oral 100 mg/kg; for oral exposure (in words): mice infected with S. pyogenes 02C0203, 100 mg/kg. The procedure: as §1, §2

In brackets after ≈: the same amount, converted by molar mass.

One may read the MIC as the lowest concentration found to suppress growth. A high value points to a need for much substance. For the compound `Cc1coc(-c2cc(F)c3c(c2)CC2(C(=O)NC(=O)NC2=O)[C@H]2[C@H](C)O[C@H](C)CN32)n1` (single isomer, unassigned) [Example 1], the “Target fAUC” value in the data set on S. pyogenes 02C0203 [1] amounted to 2000 ng·h/mL. Moreover, in the data set with S. pyogenes 02C0203 [2] (single oral dose 12.5 mg/kg), the “Log10 geometric mean recoverable cfu” value is listed as 6.17 and the “Mean log10 cfu reduction vs. infected controls” value stood at 0.53. For the same compound, in the data set on S. pyogenes 02C0203 [2] (single oral dose 25 mg/kg), the “Log10 geometric mean recoverable cfu” value stood at 5.45 and the “Mean log10 cfu reduction vs. infected controls” value came to 1.25. Besides, in the data set with S. pyogenes 02C0203 [2] (single oral dose 50 mg/kg), the “Log10 geometric mean recoverable cfu” value amounted to 4.60 and the “Mean log10 cfu reduction vs. infected controls” value stood at 2.10. In addition, in the data set with S. pyogenes 02C0203 [2] (single oral dose 100 mg/kg), the “Log10 geometric mean recoverable cfu” value came out at 3.49 and the “Mean log10 cfu reduction vs. infected controls” value is 3.21. Moreover, in the data set on S. pyogenes 02C0203 [2] (single oral dose 200 mg/kg), the “Log10 geometric mean recoverable cfu” value amounted to 2.85 and the “Mean log10 cfu reduction vs. infected controls” value amounted to 3.85. Besides, in the data set with S. pyogenes 02C0203 [3], the “antibacterial activity (in words)” value is reported as “antibacterial activity” and inhibition of growth (MIC) required 1 µg/mL (≈ 2.33 µM). Besides, in data set [4], the concentration at 0.5 h came to 13500 ng/mL, the concentration at 1 h turned out to be 13300 ng/mL, the concentration at 2 h was found to be 21500 ng/mL and the concentration at 4 h was 24500 ng/mL. Moreover, in data set [4], the concentration at 8 h was 7450 ng/mL, the concentration at 24 h was determined as 176 ng/mL and the “oral exposure (in words)” value is “demonstrated oral exposure”.
Regarding `Cc1cc(-c2cc3c(c(F)c2F)N2C[C@@H](C)O[C@@H](C)[C@@H]2C2(C3)C(=O)NC(=O)NC2=O)on1` (single isomer, unassigned) [Example 2], the “Log10 geometric mean recoverable cfu” value is 6.23 in the data set with S. pyogenes 02C0203 [2] (single oral dose 12.5 mg/kg); 5.76 in the data set with S. pyogenes 02C0203 [2] (single oral dose 25 mg/kg); 5.07 in the data set with S. pyogenes 02C0203 [2] (single oral dose 50 mg/kg); 2.11 with S. pyogenes 02C0203 [2] (single oral dose 100 mg/kg); 1.92 with S. pyogenes 02C0203 [2] (single oral dose 200 mg/kg). In addition, the “Mean log10 cfu reduction vs. infected controls” value in the data set on S. pyogenes 02C0203 [2] (single oral dose 12.5 mg/kg) is on record as 0.47; with S. pyogenes 02C0203 [2] (single oral dose 25 mg/kg) it was 0.94; in the data set on S. pyogenes 02C0203 [2] (single oral dose 50 mg/kg), 1.63; with S. pyogenes 02C0203 [2] (single oral dose 100 mg/kg), 4.59; in the data set on S. pyogenes 02C0203 [2] (single oral dose 200 mg/kg), 4.78.
Consider `Cc1ncc(-c2cc3c(cc2F)N2C[C@@H](C)O[C@@H](C)[C@@H]2C2(C3)C(=O)NC(=O)NC2=O)cn1` [Comparator Compound from the Literature, reference compound], for which, in the data set with S. pyogenes 02C0203 [2] (single oral dose 12.5 mg/kg), the “Log10 geometric mean recoverable cfu” value was 6.48 and the “Mean log10 cfu reduction vs. infected controls” value was −0.11. Further, in the data set on S. pyogenes 02C0203 [2] (single oral dose 25 mg/kg), the “Log10 geometric mean recoverable cfu” value came to 6.52 and the “Mean log10 cfu reduction vs. infected controls” value is given as −0.07. Moreover, in the data set on S. pyogenes 02C0203 [2] (single oral dose 50 mg/kg), the “Log10 geometric mean recoverable cfu” value is 6.48 and the “Mean log10 cfu reduction vs. infected controls” value was −0.11. Also, in the data set on S. pyogenes 02C0203 [2] (single oral dose 100 mg/kg), the “Log10 geometric mean recoverable cfu” value worked out at 4.62 and the “Mean log10 cfu reduction vs. infected controls” value is recorded as −1.97. Further, in the data set with S. pyogenes 02C0203 [2] (single oral dose 200 mg/kg), the “Log10 geometric mean recoverable cfu” value was 4.32 and the “Mean log10 cfu reduction vs. infected controls” value is on record as −2.27. The compound also had an MIC against S. pyogenes 02C0203 [3] of 2 µg/mL (≈ 4.55 µM). In data set [4], this compound gave a concentration at 0.5 h of 11100 ng/mL, a concentration at 1 h of 17100 ng/mL, a concentration at 2 h of 16000 ng/mL and a concentration at 4 h of 8530 ng/mL. In data set [4], this compound came in with a concentration at 8 h of 3700 ng/mL and a concentration at 24 h of 1400 ng/mL.
Consider `CCc1coc(-c2cc3c(c(F)c2F)N2C[C@H](C)O[C@H](C)[C@H]2C2(C3)C(=O)NC(=O)NC2=O)n1` (racemic) [Example 9, (2S,4R,4aR)-8-(4-ethyloxazol-2-yl)-9,10-difluoro-2,4-dimethyl-2,4,4a,6-tetrahydro-1H,1′H-spiro[[1,4]oxazino[4,3-a]quinoline-5,5′-pyrimidine]-2′,4′,6′(3′H)-trione], for which the “Target fAUC” value in the data set with S. pyogenes 02C0203 [1] was determined as 4000 ng·h/mL. In the data set on S. pyogenes 02C0203 [3], the “antibacterial activity (in words)” value is “antibacterial activity” and the MIC is 1 µg/mL (≈ 2.17 µM). In data set [4], the concentration at 0.5 h was 19400 ng/mL, the concentration at 1 h is 19000 ng/mL, the concentration at 2 h was 23000 ng/mL and the concentration at 4 h is 22900 ng/mL. Moreover, in data set [4], the concentration at 8 h was 18100 ng/mL, the concentration at 24 h turned out to be 2180 ng/mL and the “oral exposure (in words)” value is on record as “demonstrated oral exposure”.
